Assay results published in ChEMBL document CHEMBL1201862, “PubChem BioAssay data set” (2004).
The source made the active and inactive calls.

How the values were obtained:
[1] = target: T1, Tyrosine-protein phosphatase non-receptor type 7 (Homo sapiens, UniProt P35236); experiment: redox-active compounds inhibiting HePTP phosphatase – biochemical, fluorescence, mechanism study (AID 2068); assay type: functional
T1 sequence (P35236 whole entry): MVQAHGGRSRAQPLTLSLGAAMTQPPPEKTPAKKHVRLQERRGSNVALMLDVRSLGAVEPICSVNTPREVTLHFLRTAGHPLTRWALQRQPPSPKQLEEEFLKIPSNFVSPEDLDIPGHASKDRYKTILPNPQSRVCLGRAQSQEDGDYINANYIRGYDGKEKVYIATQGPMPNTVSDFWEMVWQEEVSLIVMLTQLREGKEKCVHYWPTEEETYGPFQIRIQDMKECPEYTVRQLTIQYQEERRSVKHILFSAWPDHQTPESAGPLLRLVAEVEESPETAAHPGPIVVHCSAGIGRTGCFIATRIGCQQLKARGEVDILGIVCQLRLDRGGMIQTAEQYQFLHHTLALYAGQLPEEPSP

Aminopeptidase N = target: T2, Aminopeptidase N (Plasmodium falciparum FcB1/Columbia, UniProt O96935); experiment: malaria alanyl aminopeptidase activity blockers – biochemical, fluorogenic H-Leu-NHMec substrate, 1536-well (AID 1445); set-up: species or system Plasmodium falciparum 3D7, 3D7
T2 sequence (O96935 whole entry): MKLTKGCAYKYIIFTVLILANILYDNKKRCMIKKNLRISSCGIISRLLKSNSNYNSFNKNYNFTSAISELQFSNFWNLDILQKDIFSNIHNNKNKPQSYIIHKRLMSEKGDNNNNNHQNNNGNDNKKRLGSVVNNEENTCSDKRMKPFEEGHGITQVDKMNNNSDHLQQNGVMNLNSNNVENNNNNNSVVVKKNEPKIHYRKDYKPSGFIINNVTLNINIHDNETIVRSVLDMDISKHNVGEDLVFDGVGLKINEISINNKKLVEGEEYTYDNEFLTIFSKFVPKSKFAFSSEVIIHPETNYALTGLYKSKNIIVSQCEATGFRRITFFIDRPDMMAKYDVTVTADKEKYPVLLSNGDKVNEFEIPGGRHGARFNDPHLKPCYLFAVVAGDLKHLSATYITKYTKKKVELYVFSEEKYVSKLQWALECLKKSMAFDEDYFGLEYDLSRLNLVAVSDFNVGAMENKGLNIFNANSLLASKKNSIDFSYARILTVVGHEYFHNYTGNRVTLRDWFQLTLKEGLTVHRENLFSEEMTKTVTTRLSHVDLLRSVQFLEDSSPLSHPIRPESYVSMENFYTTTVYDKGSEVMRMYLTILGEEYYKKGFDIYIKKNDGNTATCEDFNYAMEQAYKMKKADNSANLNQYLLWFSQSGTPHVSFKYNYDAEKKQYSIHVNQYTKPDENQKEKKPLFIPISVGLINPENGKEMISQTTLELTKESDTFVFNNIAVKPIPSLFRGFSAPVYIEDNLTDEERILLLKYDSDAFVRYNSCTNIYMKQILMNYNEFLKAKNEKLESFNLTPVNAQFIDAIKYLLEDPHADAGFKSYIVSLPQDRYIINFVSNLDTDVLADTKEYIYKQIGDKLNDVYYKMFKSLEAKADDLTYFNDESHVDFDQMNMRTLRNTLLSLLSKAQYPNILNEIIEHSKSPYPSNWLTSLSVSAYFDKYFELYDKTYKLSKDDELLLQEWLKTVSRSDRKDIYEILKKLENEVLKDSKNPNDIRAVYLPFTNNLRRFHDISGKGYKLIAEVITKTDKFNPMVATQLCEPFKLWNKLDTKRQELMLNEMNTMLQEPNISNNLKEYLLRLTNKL

[2] = P. falciparum Dd2 growth inhibitors, dose response, SYBR Green, cherry-picked samples (AID 1159567); assay type: functional, cell-based
[3] = toxicity to human hepatoma HepG2 cells – cell-based, cherry-picked samples, cytotoxicity control, dose response (AID 1159577); assay type: functional
[4] = target: T3, Voltage-gated N-type calcium channel alpha-1B subunit/Amyloid beta A4 precursor protein-binding family A member 1 (Homo sapiens, UniProt Q00975+Q02410); assay type: protein assay
[5] = target: T3, Voltage-gated N-type calcium channel alpha-1B subunit/Amyloid beta A4 precursor protein-binding family A member 1; assay type: protein assay; remark: listed apart in the source
Leucine aminopeptidase = target: T4, Leucine aminopeptidase (Plasmodium falciparum 3D7, UniProt Q8IL11); experiment: P. falciparum M17LAP inhibitors, primary screen, biochemical, fluorogenic H-Leu-NHMec substrate, 1536-well (AID 1619); assay type: functional
T4 sequence (Q8IL11 whole entry): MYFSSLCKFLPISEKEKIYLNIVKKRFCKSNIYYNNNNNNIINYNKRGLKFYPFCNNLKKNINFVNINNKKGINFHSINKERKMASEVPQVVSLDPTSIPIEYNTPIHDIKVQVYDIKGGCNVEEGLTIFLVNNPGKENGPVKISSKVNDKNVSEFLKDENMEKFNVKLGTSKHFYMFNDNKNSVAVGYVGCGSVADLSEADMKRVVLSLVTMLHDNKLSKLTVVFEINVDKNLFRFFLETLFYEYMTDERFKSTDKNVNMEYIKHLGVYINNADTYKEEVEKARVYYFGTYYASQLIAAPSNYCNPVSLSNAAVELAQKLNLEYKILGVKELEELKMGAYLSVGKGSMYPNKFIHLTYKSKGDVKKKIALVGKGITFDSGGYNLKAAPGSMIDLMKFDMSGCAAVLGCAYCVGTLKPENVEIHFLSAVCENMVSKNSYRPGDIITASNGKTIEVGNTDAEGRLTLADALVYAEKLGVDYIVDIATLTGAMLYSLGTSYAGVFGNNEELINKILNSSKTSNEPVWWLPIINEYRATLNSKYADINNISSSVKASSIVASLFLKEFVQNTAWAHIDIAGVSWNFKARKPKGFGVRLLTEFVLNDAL

[6] = target: T5, Short transient receptor potential channel 4 (Mus musculus, UniProt Q9QUQ5); experiment: calcium entry via TRPC4 opening agents – cell-based, HEK293 TRPC4/mu-opioid, Fluo-4 calcium, dose response (AID 434937); assay type: functional
T5 sequence (Q9QUQ5 whole entry): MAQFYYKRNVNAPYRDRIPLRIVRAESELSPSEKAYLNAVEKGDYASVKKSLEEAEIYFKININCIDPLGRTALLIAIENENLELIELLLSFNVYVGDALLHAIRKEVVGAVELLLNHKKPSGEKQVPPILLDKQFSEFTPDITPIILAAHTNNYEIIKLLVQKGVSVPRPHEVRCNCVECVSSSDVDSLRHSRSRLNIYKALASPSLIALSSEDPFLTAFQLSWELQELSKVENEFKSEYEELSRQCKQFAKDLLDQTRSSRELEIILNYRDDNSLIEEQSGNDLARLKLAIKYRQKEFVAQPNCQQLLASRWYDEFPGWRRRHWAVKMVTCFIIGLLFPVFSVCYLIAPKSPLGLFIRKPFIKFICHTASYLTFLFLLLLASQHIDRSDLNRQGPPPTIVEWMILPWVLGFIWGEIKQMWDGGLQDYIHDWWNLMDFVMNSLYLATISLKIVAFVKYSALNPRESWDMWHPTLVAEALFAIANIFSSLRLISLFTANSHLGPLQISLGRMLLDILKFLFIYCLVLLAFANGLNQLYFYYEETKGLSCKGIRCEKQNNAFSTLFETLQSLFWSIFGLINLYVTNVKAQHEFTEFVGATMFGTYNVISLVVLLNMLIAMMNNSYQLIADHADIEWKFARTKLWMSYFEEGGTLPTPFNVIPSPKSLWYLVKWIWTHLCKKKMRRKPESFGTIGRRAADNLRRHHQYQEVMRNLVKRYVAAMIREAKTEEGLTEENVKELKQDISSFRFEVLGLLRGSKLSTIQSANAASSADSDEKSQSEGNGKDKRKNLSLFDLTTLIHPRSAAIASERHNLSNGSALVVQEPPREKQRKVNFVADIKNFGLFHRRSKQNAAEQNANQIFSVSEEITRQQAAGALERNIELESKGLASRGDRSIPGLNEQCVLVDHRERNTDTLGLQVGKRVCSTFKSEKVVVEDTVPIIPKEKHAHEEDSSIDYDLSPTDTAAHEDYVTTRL

T3 sequence (Q00975 whole entry): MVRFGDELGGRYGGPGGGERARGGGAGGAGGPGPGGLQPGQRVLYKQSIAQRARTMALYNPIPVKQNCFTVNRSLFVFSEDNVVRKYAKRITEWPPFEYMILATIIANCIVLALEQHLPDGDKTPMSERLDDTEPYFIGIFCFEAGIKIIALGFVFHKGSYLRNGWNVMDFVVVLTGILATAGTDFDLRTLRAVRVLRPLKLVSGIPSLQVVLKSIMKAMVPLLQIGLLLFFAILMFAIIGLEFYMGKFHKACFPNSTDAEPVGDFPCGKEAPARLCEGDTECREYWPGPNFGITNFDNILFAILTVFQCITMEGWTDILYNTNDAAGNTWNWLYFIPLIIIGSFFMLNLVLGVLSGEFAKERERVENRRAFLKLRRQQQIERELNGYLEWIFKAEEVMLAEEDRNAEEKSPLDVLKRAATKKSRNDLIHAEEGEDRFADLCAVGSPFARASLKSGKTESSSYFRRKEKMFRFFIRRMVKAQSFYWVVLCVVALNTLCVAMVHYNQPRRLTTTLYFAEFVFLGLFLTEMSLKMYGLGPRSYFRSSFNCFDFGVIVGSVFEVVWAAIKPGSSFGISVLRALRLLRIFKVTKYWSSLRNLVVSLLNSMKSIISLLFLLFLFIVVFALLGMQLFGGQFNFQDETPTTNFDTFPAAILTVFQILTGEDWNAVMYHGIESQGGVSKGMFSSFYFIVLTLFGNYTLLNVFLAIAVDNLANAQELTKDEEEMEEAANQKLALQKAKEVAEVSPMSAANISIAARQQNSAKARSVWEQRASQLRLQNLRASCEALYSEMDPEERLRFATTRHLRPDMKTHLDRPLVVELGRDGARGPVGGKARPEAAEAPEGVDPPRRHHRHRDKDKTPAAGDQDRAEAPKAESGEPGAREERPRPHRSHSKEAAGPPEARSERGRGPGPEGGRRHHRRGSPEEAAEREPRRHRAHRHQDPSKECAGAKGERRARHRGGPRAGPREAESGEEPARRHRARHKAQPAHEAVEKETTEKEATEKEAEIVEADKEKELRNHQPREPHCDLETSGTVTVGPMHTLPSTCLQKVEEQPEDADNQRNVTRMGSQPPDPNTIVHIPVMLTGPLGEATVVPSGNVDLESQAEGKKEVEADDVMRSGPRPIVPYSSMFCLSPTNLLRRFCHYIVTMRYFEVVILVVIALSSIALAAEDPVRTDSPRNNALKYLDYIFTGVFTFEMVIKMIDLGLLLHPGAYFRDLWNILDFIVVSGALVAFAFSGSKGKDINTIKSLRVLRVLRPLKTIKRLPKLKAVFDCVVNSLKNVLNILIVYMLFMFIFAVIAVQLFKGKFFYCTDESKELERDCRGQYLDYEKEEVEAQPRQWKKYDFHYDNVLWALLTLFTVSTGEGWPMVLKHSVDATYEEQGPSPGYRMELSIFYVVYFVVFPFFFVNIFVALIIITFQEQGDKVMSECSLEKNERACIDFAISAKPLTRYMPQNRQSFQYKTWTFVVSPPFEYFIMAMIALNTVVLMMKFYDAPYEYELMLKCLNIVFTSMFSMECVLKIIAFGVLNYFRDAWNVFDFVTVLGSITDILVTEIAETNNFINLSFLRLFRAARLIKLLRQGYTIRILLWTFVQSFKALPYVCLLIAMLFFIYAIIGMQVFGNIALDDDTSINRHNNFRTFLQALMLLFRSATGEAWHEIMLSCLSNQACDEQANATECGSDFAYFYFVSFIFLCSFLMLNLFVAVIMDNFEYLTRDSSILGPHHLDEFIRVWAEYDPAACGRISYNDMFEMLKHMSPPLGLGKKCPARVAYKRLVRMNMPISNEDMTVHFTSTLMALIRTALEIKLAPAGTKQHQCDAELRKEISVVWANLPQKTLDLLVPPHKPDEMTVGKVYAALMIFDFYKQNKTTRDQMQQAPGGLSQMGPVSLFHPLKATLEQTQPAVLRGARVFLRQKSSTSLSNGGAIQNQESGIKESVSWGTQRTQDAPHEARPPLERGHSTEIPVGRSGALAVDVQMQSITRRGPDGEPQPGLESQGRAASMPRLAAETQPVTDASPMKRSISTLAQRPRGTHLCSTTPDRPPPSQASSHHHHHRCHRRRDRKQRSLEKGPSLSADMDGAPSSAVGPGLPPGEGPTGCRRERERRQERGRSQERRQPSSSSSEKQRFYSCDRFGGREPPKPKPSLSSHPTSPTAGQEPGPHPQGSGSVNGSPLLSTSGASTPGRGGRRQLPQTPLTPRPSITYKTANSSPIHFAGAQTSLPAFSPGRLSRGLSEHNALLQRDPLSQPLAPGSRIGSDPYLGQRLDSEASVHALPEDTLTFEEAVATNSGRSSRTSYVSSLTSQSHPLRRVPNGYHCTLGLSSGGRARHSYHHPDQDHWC
T3 sequence (Q02410 whole entry): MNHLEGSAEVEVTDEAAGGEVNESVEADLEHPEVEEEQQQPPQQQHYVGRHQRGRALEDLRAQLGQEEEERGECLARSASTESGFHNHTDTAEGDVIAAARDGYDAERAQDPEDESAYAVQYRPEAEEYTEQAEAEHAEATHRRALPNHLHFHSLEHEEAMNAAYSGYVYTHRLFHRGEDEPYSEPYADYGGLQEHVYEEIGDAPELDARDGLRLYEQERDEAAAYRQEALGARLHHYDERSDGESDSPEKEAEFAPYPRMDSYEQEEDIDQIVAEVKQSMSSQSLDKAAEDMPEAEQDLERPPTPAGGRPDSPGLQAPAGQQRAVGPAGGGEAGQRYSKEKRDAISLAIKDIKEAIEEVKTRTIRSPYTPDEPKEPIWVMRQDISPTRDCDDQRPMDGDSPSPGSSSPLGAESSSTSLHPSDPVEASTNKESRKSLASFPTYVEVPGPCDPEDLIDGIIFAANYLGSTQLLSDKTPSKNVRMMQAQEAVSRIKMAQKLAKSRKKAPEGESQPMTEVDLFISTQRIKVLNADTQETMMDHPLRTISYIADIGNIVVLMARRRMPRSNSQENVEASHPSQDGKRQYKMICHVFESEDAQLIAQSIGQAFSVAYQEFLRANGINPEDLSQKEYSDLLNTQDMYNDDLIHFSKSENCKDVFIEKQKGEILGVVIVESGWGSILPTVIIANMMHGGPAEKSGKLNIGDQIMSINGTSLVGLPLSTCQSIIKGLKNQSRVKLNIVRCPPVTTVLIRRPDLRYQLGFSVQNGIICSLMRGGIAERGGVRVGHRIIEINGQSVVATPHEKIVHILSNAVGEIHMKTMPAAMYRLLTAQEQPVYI

## O=C(Nc1ccc2nc(-c3ccco3)c(-c3ccco3)nc2c1)N1CCSCC1
[1]
  IC50: 3.36 µM (active)

## O=C(Nc1ccc(-n2ccnc2P(=O)(O)c2ccccc2)cc1)c1ccccc1Br
Aminopeptidase N
  IC50: 11.2 µM (active)

## C[C@@H]1CN([C@H](C)CO)C(=O)c2c(c3ccccc3n2C)-c2ccccc2CO[C@@H]1CN(C)Cc1cccc(O)c1
[2]
  AC50: 4.04 µM (active)
[3]
  AC50: 17.2 µM (active)

## CCOC(=O)c1nnn2c1nc(Nc1cccc(C(F)(F)F)c1)c1ccccc12
[4]
  IC50: > 50 µM (inactive)
[5]
  IC50: 25.1 µM (active)

## COc1ccc(NC(=O)Cc2c(F)cccc2Cl)cc1
Leucine aminopeptidase
  IC50: 13.6 µM (active)

## CCCCCCCCc1nnc(SC(C)C(=O)O)[nH]1 (centres undefined)
Leucine aminopeptidase
  IC50: 5.32 µM (active)

## O=C(CSc1ccccc1C(=O)O)NCc1ccc(Cl)cc1
Leucine aminopeptidase
  IC50: 17.4 µM (active)

## N#C[C@H]1[C@H](c2ccc(C#CC3CCCCC3)cc2)[C@@H](CO)N1C(=O)Nc1ccc(F)cc1
[2]
  AC50: 4.35 µM (active)
[3]
  AC50: 9.27 µM (active)

## CCN1CCCC1CNS(=O)(=O)c1c(C)cc(C)cc1C (centres undefined)
[6]
  EC50: 3.35 µM (active)

## Cc1c(C)c2cc(Cl)c(O)c(CN3CCCC(C)C3)c2oc1=O (centres undefined)
Aminopeptidase N
  IC50: 43.1 µM (active)

## COc1ccc(-c2[nH]ncc2/C=C(\C#N)C(=O)NC2CC2)cc1
Leucine aminopeptidase
  IC50: 36.9 µM (active)
